According to BindingDB's records for doi:10.1016/j.bmc.2015.09.025 (Sookmyung Women'S University, 2015):
pIC50: −log10 of the molar value.

Test: Antiosteoclast activity in mouse BMM cells assessed as reduction of RANKL-induced osteoclasts differentiation by measuring TRAP positive multinucleated cells after 4 days by light microscopy

| pIC50 | Structure (SMILES) |
| --- | --- |
| 5.88 | CCc1ccc(Nc2nc3cc(NC(=O)CCCCOc4ccc(/C(N)=N/O)cc4)ccc3o2)cc1 |
| 6.25 | N/C(=N\O)c1ccc(OCCCCC(=O)Nc2ccc3oc(Nc4ccccc4)nc3c2)cc1 |
| 6.24 | COc1ccc(Nc2nc3cc(NC(=O)CCCCOc4ccc(/C(N)=N/O)cc4)ccc3o2)cc1 |
| < 4.70 | CC(c1cc2ccccc2s1)N(O)C(N)=O (racemic) [Leutrol] |
